{"source": "patent US20100285443A1", "about": "“Diagnostic Methods for Diseases Caused by a HPV Infection Comprising Determining the Methylation Status of the HPV Genome” (OncoMethylome Sciences SA, priority 2006, published 2010)", "key": {"E6 and E7": {"system": "E6 and E7", "assay": "Expression of HPV-16 E6 and E7 oncoproteins (Western blotting)", "format": "cell-based, HPV16", "conditions": "after induced hypomethylation of the E2-binding sites", "text": "The detection of the expression of viral oncogenic proteins was realized by Western blotting technique using commercially available antibodies, raised against E6 and E7.\n(§1) The described HPV16 DNA methylomes also reflect the proposed expression patterns of the virus in cervical tumorigenesis, characterized by a significant overexpression of E6 and E7 in the carcinomas. […] This event is particularly observed for the E1/E2 region. The protein E2 is an inhibitor of cell proliferation by regulating the viral URR, repressing the E6 and E7 oncoproteins and ultimately causing cell cycle arrest at G2 (Frattini 1997 EMBO J). Thus, the genomic loss of E2 could contribute to the progression of the disease. […] We observe instead methylation of the E2-binding sites at the URR region that are associated with high level of expression of the oncoproteins E6 and E7. Most important, we show by chromatin immunoprecipitation (ChIP) that the E2 viral protein cannot bind to the methylated E2-binding sites at the URR region, and thus leads to E6 and E7 overexpression."}, "[1]": {"system": "E2-binding sites at the URR region", "assay": "Chromatin immunoprecipitation (ChIP) of E2 viral protein at the E2-binding sites of the URR", "format": "cell-based", "conditions": "after induced hypomethylation of the E2-binding sites", "text": "as §1"}, "HPV16 genome": {"system": "HPV16 genome", "assay": "DNA methylation of the HPV16 genome (bisulfite genomic sequencing)", "format": "cell-based", "text": "To determine the methylation pattern of all […] genes, Bisulfite Genomic Sequencing and Methylation-specific PCR (MSP) were used. Essentially, both detection methods use the C to T conversion by bisulfite when the cytosine is not methylated. The Primers used are described in Table 1 (Bisulfite genomic sequencing—SEQ ID NOs 1 to 42) and Table 2 (Methylation-specific PCR—SEQ ID NOs 43 to 46).\nThus, the viral genome is methylated by the host human cellular DNMTs. Because the integration of HPV16 in the human genome occurs in most cervical tumors and a significant proportion of premalignant lesions, we can consider that human DNMTs might recognize these sequences as “foreign” DNA that needs to be methylated. Indeed in our study, we have confirmed by FISH analyses that the HPV16 genome is integrated in the host cell DNA in CaSki and SiHa.\nThe described HPV16 DNA methylomes also reflect the proposed expression patterns of the virus in cervical tumorigenesis, characterized by a significant overexpression of E6 and E7 in the carcinomas. […] This event is particularly observed for the E1/E2 region. The protein E2 is an inhibitor of cell proliferation by regulating the viral URR, repressing the E6 and E7 oncoproteins and ultimately causing cell cycle arrest at G2 (Frattini 1997 EMBO J). Thus, the genomic loss of E2 could contribute to the progression of the disease. […]"}}, "data": [{"smiles": "Nc1ncn([C@H]2C[C@H](O)[C@@H](CO)O2)c(=O)n1", "note": "[5-aza-2′-deoxycytidine]", "values": [{"measurement": "E6 and E7 expression", "setting": "E6 and E7", "value": "marked reduction"}, {"measurement": "recruitment of E2 to its URR binding sites", "setting": "[1]", "value": "recruitment of E2 to its URR binding sites"}, {"measurement": "methylation of the E2-binding sites at the URR region", "setting": "HPV16 genome", "value": "hypomethylation events"}]}]}
